Test [1] deals with M. tuberculosis MDR (resistant to isoniazid and rifampicin). The experiment in a line: microbe, parasite or virus in culture. The format is cell-based. Conditions: Mycobacterium tuberculosis, 504 h, read-out: MIC M. tb MDR.
For test [2], the system named is M. tuberculosis XDR (resistant to isoniazid, rifampicin, amikacin and moxifloxacin). The experiment in a line: microbe, parasite or virus in culture. The format is cell-based. Conditions: Mycobacterium tuberculosis, 504 h, read-out: MIC M. tb XDR.

In brackets after ≈: the same amount, converted by molar mass.

From patent US9845330B2, “6-nitro-2,3-dihydroimidazo[2,1-b]oxazoles and a process for the preparation thereof” (priority 2013, dated 2017) come the findings set out here.

For the molecule `C[C@]1(COc2ccc(-n3nnnc3Oc3ccc(F)cc3)cc2)Cn2cc([N+](=O)[O-])nc2O1` [IB7, (R)-2-{4-[5-(4-fluorophenoxy)-1H-tetrazol-1-yl]phenoxymethyl}-2,3-dihydro-2-methyl-6-nitroimidazo[2,1-b]oxazole], the MIC in test [1] and in test [2] was 2 µg/mL (≈ 4.41 µM) throughout.
With `C[C@]1(COc2ccc(-n3nnnc3-c3ccc(C(F)(F)F)cc3)cc2)Cn2cc([N+](=O)[O-])nc2O1` [IB5, (R)-2-{4-[5-(4-trifluoromethylphenyl)-1H-tetrazol-1-yl]phenoxymethyl}-2,3-dihydro-2-methyl-6-nitroimidazo[2,1-b]oxazole], the MIC in test [1] and in test [2] was 1 µg/mL (≈ 2.05 µM) throughout.
As for `CCCCCCCc1cc(-c2ccc(OC[C@@]3(C)Cn4cc([N+](=O)[O-])nc4O3)cc2)no1` [IC12, (R)-2-{4-[5-heptylisoxazol-3-yl]phenoxymethyl}-2,3-dihydro-2-methyl-6-nitroimidazo[2,1-b]oxazole], the MIC in test [1] and in test [2] was 2 µg/mL (≈ 4.54 µM) in each case.
Consider `C[C@]1(COc2ccccc2-n2cc(-c3ccc(F)cc3F)nn2)Cn2cc([N+](=O)[O-])nc2O1` [IA24, (R)-2-{2-[4-(2,4-difluorophenyl)-1H-1,2,3-triazol-1-yl]phenoxymethyl}-2,3-dihydro-2-methyl-6-nitroimidazo[2,1-b]oxazole], for which the MIC in test [1] and in test [2] was 1 µg/mL (≈ 2.2 µM) throughout.
For the molecule `C[C@]1(COc2ccc(-c3cc(COc4ccc(F)cc4F)on3)cc2)Cn2cc([N+](=O)[O-])nc2O1` [IC22, (R)-2-{4-[5-(2,4-difluorophenoxymethyl)isoxazol-3-yl]phenoxymethyl}-2,3-dihydro-2-methyl-6-nitroimidazo[2,1-b]oxazole], the MIC in test [1] and in test [2] was 0.12 µg/mL (≈ 0.248 µM) in each case.
For `C[C@]1(COc2cccc(-n3cc(-c4ccc(F)cc4F)nn3)c2)Cn2cc([N+](=O)[O-])nc2O1` [IA20, (R)-2-{3-[4-(2,4-difluorophenyl)-1H-1,2,3-triazol-1-yl]phenoxymethyl}-2,3-dihydro-2-methyl-6-nitroimidazo[2,1-b]oxazole], the MIC in test [1] and in test [2] was 4 µg/mL (≈ 8.8 µM) throughout.
Regarding `Cc1ccc(-c2cc(-c3ccc(OC[C@@]4(C)Cn5cc([N+](=O)[O-])nc5O4)cc3)no2)cc1` [IC6, (R)-2-{4-[5-(4-methylphenyl)isoxazol-3-yl]phenoxymethyl}-2,3-dihydro-2-methyl-6-nitroimidazo[2,1-b]oxazole], the MIC in test [1] and in test [2] was 1 µg/mL (≈ 2.31 µM) in each case.
As for `C[C@]1(COc2ccc(S(=O)(=O)N3CCN(c4ccc(F)cc4)CC3)cc2)Cn2cc([N+](=O)[O-])nc2O1` [IIC2, (R)-2-{4-[4-(4-fluorophenyl)piperazin-1-yl]sulfonylphenoxymethyl}-2,3-dihydro-2-methyl-6-nitroimidazo[2,1-b]oxazole], the MIC in test [1] and in test [2] was 2 µg/mL (≈ 3.86 µM) in each case.
Take `C[C@]1(COc2ccc(-n3cc(-c4ccccc4)nn3)cc2)Cn2cc([N+](=O)[O-])nc2O1` [IA1]: the MIC in test [1] and in test [2] was 4 µg/mL (≈ 9.56 µM) each time.
On to `CCCCCCCc1cn(-c2ccc(OC[C@@]3(C)Cn4cc([N+](=O)[O-])nc4O3)cc2)nn1` [IA16, (R)-2-{4-[4-heptyl-1H-1,2,3-triazol-1-yl]phenoxymethyl}-2,3-dihydro-2-methyl-6-nitroimidazo[2,1-b]oxazole], for which the MIC in test [1] and in test [2] was 4 µg/mL (≈ 9.08 µM) each time.
On to `C[C@]1(COc2ccc(-n3nnnc3-c3ccccc3)cc2)Cn2cc([N+](=O)[O-])nc2O1` [IB1, (R)-2-{4-[5-phenyl-1H-tetrazol-1-yl]phenoxymethyl}-2,3-dihydro-2-methyl-6-nitroimidazo[2,1-b]oxazole], for which the MIC in test [1] and in test [2] was 2 µg/mL (≈ 4.77 µM) each time.
Consider `CCc1ccc(-c2nnnn2-c2ccc(OC[C@@]3(C)Cn4cc([N+](=O)[O-])nc4O3)cc2)cc1` [IB6, (R)-2-{4-[5-(4-ethylphenyl)-1H-tetrazol-1-yl]phenoxymethyl}-2,3-dihydro-2-methyl-6-nitroimidazo[2,1-b]oxazole], for which the MIC in test [1] and in test [2] was 2 µg/mL (≈ 4.47 µM) each time.
On to `Cc1ccc(Oc2nnnn2-c2ccc(OC[C@@]3(C)Cn4cc([N+](=O)[O-])nc4O3)cc2)cc1` [IB9, (R)-2-{4-[5-(4-methylphenoxy)-1H-tetrazol-1-yl]phenoxymethyl}-2,3-dihydro-2-methyl-6-nitroimidazo[2,1-b]oxazole], for which the MIC in test [1] and in test [2] was 4 µg/mL (≈ 8.9 µM) throughout.
As for `Cc1ccc(OCc2cc(-c3ccc(OC[C@@]4(C)Cn5cc([N+](=O)[O-])nc5O4)cc3)no2)cc1` [IC17, (R)-2-{4-[5-(4-methylphenoxymethyl)isoxazol-3-yl]phenoxymethyl}-2,3-dihydro-2-methyl-6-nitroimidazo[2,1-b]oxazole], the MIC in test [1] and in test [2] was 0.5 µg/mL (≈ 1.08 µM) each time.
Consider `C[C@]1(COc2ccc(S(=O)(=O)N3CCN(C(=O)c4ccccc4)CC3)cc2)Cn2cc([N+](=O)[O-])nc2O1` [IIC6, (R)-{4-[4-(2-methyl-6-nitro-2,3-dihydroimidazo[2,1-b]oxazol-2yl)methoxyphenyl]sulfonyl}piperazine-1-yl(phenyl)methanone], for which the MIC in test [1] and in test [2] was 2 µg/mL (≈ 3.79 µM) throughout.
As to `C[C@]1(COc2ccc(NC(=S)Nc3ccc(F)cc3)cc2)Cn2cc([N+](=O)[O-])nc2O1` [IIA9, (R)-1-(4-fluorophenyl)-3-{4-(2-methyl-6-nitro-2,3-dihydroimidazo[2,1-b]oxazol-2-yl)methoxyphenyl}thiourea], the MIC in test [1] and in test [2] was 4 µg/mL (≈ 9.02 µM) throughout.
For the molecule `C[C@]1(COc2ccc(NC(=O)Nc3ccc(C(F)(F)F)cc3)cc2)Cn2cc([N+](=O)[O-])nc2O1` [IIA3, (R)-1-(4-trifluoromethylphenyl)-3-{4-(2-methyl-6-nitro-2,3-dihydroimidazo[2,1-b]oxazol-2-yl)methoxyphenyl}urea], the MIC in test [1] and in test [2] was 0.12 µg/mL (≈ 0.251 µM) in each case.
On to `C[C@]1(COc2ccccc2-n2cc(-c3ccc(OC(F)(F)F)cc3)nn2)Cn2cc([N+](=O)[O-])nc2O1` [IA23, (R)-2-{2-[4-(4-trifluoromethoxyphenyl)-1H-1,2,3-triazol-1-yl]phenoxymethyl}-2,3-dihydro-2-methyl-6-nitroimidazo[2,1-b]oxazole], for which the MIC in test [1] and in test [2] was 4 µg/mL (≈ 7.96 µM) throughout.
As for `C[C@]1(COc2ccc(-n3cc(-c4cccc(F)c4)nn3)cc2)Cn2cc([N+](=O)[O-])nc2O1` [IA10, (R)-2-{4-[4-(3-fluorophenyl)-1H-1,2,3-triazol-1-yl]phenoxymethyl}-2,3-dihydro-2-methyl-6-nitroimidazo[2,1-b]oxazole], the MIC in test [1] and in test [2] was 2 µg/mL (≈ 4.58 µM) in each case.
For the molecule `C[C@]1(COc2ccc(-n3cc(-c4ccccn4)nn3)cc2)Cn2cc([N+](=O)[O-])nc2O1` [IA14], the MIC in test [1] and in test [2] was 2 µg/mL (≈ 4.77 µM) in each case.
Take `CC(C)c1ccc(OCc2cn(-c3cccc(OC[C@@]4(C)Cn5cc([N+](=O)[O-])nc5O4)c3)nn2)cc1` [IA38]: the MIC in test [1] and in test [2] was 4 µg/mL (≈ 8.15 µM) each time.
As for `C[C@]1(COc2ccc(S(=O)(=O)N3CCCC3)cc2)Cn2cc([N+](=O)[O-])nc2O1` [IIC9, (R)-2-{4-(pyrrolidin-1-ylsulfonyl)phenoxymethyl}-2,3-dihydro-2-methyl-6-nitroimidazo[2,1-b]oxazole], the MIC in test [1] and in test [2] was 1 µg/mL (≈ 2.45 µM) throughout.
With `Cc1ccc(-c2nnnn2-c2ccc(OC[C@@]3(C)Cn4cc([N+](=O)[O-])nc4O3)cc2)cc1` [IB3, (R)-2-{4-[5-(4-methylphenyl)-1H-tetrazol-1-yl]phenoxymethyl}-2,3-dihydro-2-methyl-6-nitroimidazo[2,1-b]oxazole], the MIC in test [1] and in test [2] was 4 µg/mL (≈ 9.23 µM) each time.
As to `C[C@]1(COc2ccc(-n3cc(-c4ccc(OC(F)(F)F)cc4)nn3)cc2)Cn2cc([N+](=O)[O-])nc2O1` [IA5, (R)-2-{4-[4-(4-trifluoromethoxyphenyl)-1H-1,2,3-triazol-1-yl]phenoxymethyl}-2,3-dihydro-2-methyl-6-nitroimidazo[2,1-b]oxazole], the MIC in test [1] and in test [2] was 0.5 µg/mL (≈ 0.995 µM) throughout.
With `CCOC(=O)N1CCN(S(=O)(=O)c2ccc(OC[C@@]3(C)Cn4cc([N+](=O)[O-])nc4O3)cc2)CC1` [IIC5, (R)-ethyl-{4-[4-(2-methyl-6-nitro-2,3-dihydroimidazo[2,1-b]oxazol-2yl)methoxyphenyl]sulfonyl}piperazine-1-carboxylate], the MIC in test [1] and in test [2] was 2 µg/mL (≈ 4.04 µM) throughout.
As to `CCC(C)c1ccc(OCc2cc(-c3ccc(OC[C@@]4(C)Cn5cc([N+](=O)[O-])nc5O4)cc3)no2)cc1` (stereo partly drawn) [IC20, (R)-2-{4-[5-(4-sec-butylphenoxymethyl)isoxazol-3-yl]phenoxymethyl}-2,3-dihydro-2-methyl-6-nitroimidazo[2,1-b]oxazole], the MIC in test [1] and in test [2] was 2 µg/mL (≈ 3.96 µM) throughout.
As to `Cc1ccc(-c2cn(-c3ccc(OC[C@@]4(C)Cn5cc([N+](=O)[O-])nc5O4)cc3)nn2)cc1` [IA8, (R)-2-{4-[4-(4-methylphenyl)-1H-1,2,3-triazol-1-yl]phenoxymethyl}-2,3-dihydro-2-methyl-6-nitroimidazo[2,1-b]oxazole], the MIC in test [1] and in test [2] was 1 µg/mL (≈ 2.31 µM) in each case.
In the case of `CCc1ccc(-c2cn(-c3ccc(OC[C@@]4(C)Cn5cc([N+](=O)[O-])nc5O4)cc3)nn2)cc1` [IA2, (R)-2-{4-[4-(4-ethylphenyl)-1H-1,2,3-triazol-1-yl]phenoxymethyl}-2,3-dihydro-2-methyl-6-nitroimidazo[2,1-b]oxazole], the MIC in test [1] and in test [2] was 4 µg/mL (≈ 8.96 µM) each time.
`C[C@]1(COc2ccc(-c3cc(-c4ccc(F)cc4F)on3)cc2)Cn2cc([N+](=O)[O-])nc2O1` [IC3, (R)-2-{4-[5-(2,4-difluorophenyl)isoxazol-3-yl]phenoxymethyl}-2,3-dihydro-2-methyl-6-nitroimidazo[2,1-b]oxazole]: the MIC in test [1] and in test [2] was 0.25 µg/mL (≈ 0.55 µM) in each case.
